Laboratory results taken from ChEMBL document CHEMBL1201862, “PubChem BioAssay data set” (2004).
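Results reflect a 48-hour exposure of cells in 96-well plates to compound at five concentrations. GI50: concentration for 50% inhibition of growth.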 Active and inactive are the calls of the source. Rule as the data show it: active = GI50 up to about 1.1 µM and inactive = higher.

Columns and labels:
Test in all cases: NCI-60 cell line screen, 48 h
COLO 205 = system: COLO 205
HOP-62 = system: HOP-62
IGROV-1 = system: IGROV-1
MOLT-4 = system: MOLT-4
RXF 393 = system: RXF 393
SK-MEL-5 = system: SK-MEL-5
M14 = system: M14
UACC-62 = system: UACC-62
RPMI-8226 = system: RPMI-8226
UACC-257 = system: UACC-257
SNB-75 = system: SNB-75
OVCAR-8 = system: OVCAR-8
DU-145 = system: DU-145
MDA-MB-435 = system: MDA-MB-435
UO-31 = system: UO-31
NCI-H460 = system: NCI-H460
EKVX = system: EKVX
OVCAR-3 = system: OVCAR-3
CAKI-1 = system: CAKI-1

SMILES | GI50 (COLO 205) | GI50 (HOP-62) | GI50 (IGROV-1) | GI50 (MOLT-4) | GI50 (RXF 393) | GI50 (SK-MEL-5) | GI50 (M14) | GI50 (UACC-62) | GI50 (RPMI-8226) | GI50 (UACC-257) | GI50 (SNB-75) | GI50 (OVCAR-8) | GI50 (DU-145) | GI50 (MDA-MB-435) | GI50 (UO-31) | GI50 (NCI-H460) | GI50 (EKVX) | GI50 (OVCAR-3) | GI50 (CAKI-1)
Nc1cc(S(N)(=O)=O)ccc1SSc1ccc(S(N)(=O)=O)cc1N | > 100 µM (inactive) | > 100 µM (inactive) | > 100 µM (inactive) | 62.7 µM (inactive) | > 100 µM (inactive) | > 52.4 µM (inactive) | > 100 µM (inactive) | > 100 µM (inactive) | > 100 µM (inactive) | > 100 µM (inactive) | > 100 µM (inactive) | > 100 µM (inactive) | > 100 µM (inactive) | > 100 µM (inactive) | > 100 µM (inactive) | > 100 µM (inactive) | > 100 µM (inactive) | > 100 µM (inactive) | > 100 µM (inactive)
Nc1ccc(-c2nc3ccccc3s2)cc1Br | > 100 µM (inactive) | 29.9 µM (inactive) | < 0.01 µM (active) | 31.4 µM (inactive) | > 38.9 µM (inactive) | > 100 µM (inactive) | 97.9 µM (inactive) | > 100 µM (inactive) | 70.8 µM (inactive) | > 100 µM (inactive) | 31.3 µM (inactive) | > 75.2 µM (inactive) | > 100 µM (inactive) | > 100 µM (inactive) | 27.5 µM (inactive) | 4.31 µM (inactive) | 26.4 µM (inactive) | < 0.01 µM (active) | > 100 µM (inactive)
CCOP(=O)(CN1CCNCCN(CP(=O)(OCC)OCC)CC1)OCC | > 100 µM (inactive) | > 100 µM (inactive) | > 100 µM (inactive) | > 100 µM (inactive) | > 100 µM (inactive) | > 100 µM (inactive) | > 100 µM (inactive) | > 100 µM (inactive) | > 100 µM (inactive) | > 100 µM (inactive) | > 100 µM (inactive) | > 100 µM (inactive) | > 100 µM (inactive) | > 100 µM (inactive) | > 100 µM (inactive) | > 100 µM (inactive) | > 100 µM (inactive) | > 100 µM (inactive) | > 100 µM (inactive)
[N-]=[N+]=NC[C@H]1OCO[C@H](CN=[N+]=[N-])[C@@H](OCCOCCCl)[C@@H]1OCCOCCCl | > 100 µM (inactive) | > 100 µM (inactive) | > 100 µM (inactive) | > 100 µM (inactive) | 5.66 µM (inactive) | 57 µM (inactive) | > 100 µM (inactive) | 80 µM (inactive) | > 100 µM (inactive) | > 100 µM (inactive) | > 100 µM (inactive) | > 100 µM (inactive) | > 100 µM (inactive) | > 100 µM (inactive) | 30.1 µM (inactive) | > 100 µM (inactive) | > 100 µM (inactive) | > 100 µM (inactive) | > 100 µM (inactive)
COc1cccc(NC(=O)CC(=O)N2N=C(C)C(/N=N\c3ccc(S(=O)(=O)c4ccc(/N=N/C5C(=O)N(C(=O)CC(=O)Nc6cccc(OC)c6)N=C5C)cc4)cc3)C2=O)c1 (stereo not given) | > 100 µM (inactive) | > 100 µM (inactive) | > 100 µM (inactive) | > 100 µM (inactive) | > 100 µM (inactive) | > 100 µM (inactive) | > 100 µM (inactive) | > 100 µM (inactive) | > 100 µM (inactive) | > 100 µM (inactive) | > 100 µM (inactive) | > 100 µM (inactive) | > 100 µM (inactive) | > 100 µM (inactive) | > 100 µM (inactive) | > 100 µM (inactive) | > 100 µM (inactive) | > 100 µM (inactive) | > 100 µM (inactive)
CO/N=C(/C(=O)N(C(=O)/C(=N/OC)c1csc(NC(c2ccccc2)(c2ccccc2)c2ccccc2)n1)n1cnn(CC(=O)OC(C)(C)C)c1=O)c1csc(NC(c2ccccc2)(c2ccccc2)c2ccccc2)n1 | > 10 µM (inactive) | > 10 µM (inactive) | > 10 µM (inactive) | > 10 µM (inactive) | > 10 µM (inactive) | > 10 µM (inactive) | > 10 µM (inactive) | > 10 µM (inactive) | > 10 µM (inactive) | > 10 µM (inactive) | > 10 µM (inactive) | > 10 µM (inactive) | > 10 µM (inactive) | > 10 µM (inactive) | 0.0139 µM (active) | > 10 µM (inactive) | > 10 µM (inactive) | > 10 µM (inactive) | > 10 µM (inactive)
COc1cc(/C=C/C(=N\NS(=O)(=O)c2ccc(C)cc2)c2sc(NNC(C)=O)nc2C)ccc1O | > 100 µM (inactive) | > 100 µM (inactive) | > 100 µM (inactive) | > 100 µM (inactive) | > 100 µM (inactive) | > 100 µM (inactive) | > 100 µM (inactive) | > 100 µM (inactive) | > 100 µM (inactive) | > 100 µM (inactive) | > 100 µM (inactive) | > 100 µM (inactive) | > 100 µM (inactive) | > 100 µM (inactive) | > 100 µM (inactive) | > 100 µM (inactive) | > 100 µM (inactive) | > 100 µM (inactive) | > 100 µM (inactive)
C=C1C(C2(C)C(OC(C)=O)CC(=O)OC(C)(COC(C)=O)C2CC(=O)OC)C(OC=O)C(OC(=O)C(O)C(C)CC)C2(C)C(c3ccoc3)CC(=O)C12O (stereo not given) | 3.66 µM (inactive) | 7.43 µM (inactive) | 2.52 µM (inactive) | > 100 µM (inactive) | 2.7 µM (inactive) | 2.94 µM (inactive) | > 23.8 µM (inactive) | > 30.7 µM (inactive) | > 100 µM (inactive) | > 100 µM (inactive) | 3.57 µM (inactive) | 10.2 µM (inactive) | 5.46 µM (inactive) | 6.61 µM (inactive) | 3.77 µM (inactive) | 2.65 µM (inactive) | 6.32 µM (inactive) | > 42.7 µM (inactive) | 3.27 µM (inactive)
O=C(CC(O)(C(F)(F)F)C(F)(F)Cl)CC(O)(C(F)(F)F)C(F)(F)Cl (stereo not given) | 1.69 µM (inactive) | 2.09 µM (inactive) | 2.47 µM (inactive) | 6.27 µM (inactive) | 2.23 µM (inactive) | 1.72 µM (inactive) | 3.65 µM (inactive) | 1.65 µM (inactive) | 7.1 µM (inactive) | 1.32 µM (inactive) | 2.82 µM (inactive) | 2.88 µM (inactive) | 1.17 µM (inactive) | 2.19 µM (inactive) | 1.44 µM (inactive) | 1.64 µM (inactive) | 2.37 µM (inactive) | 1.62 µM (inactive) | 2.74 µM (inactive)
CCc1c(Cl)nc(Cl)nc1Cl | 0.0764 µM (active) | 2.09 µM (inactive) | 0.542 µM (active) | 0.0173 µM (active) | 0.296 µM (active) | 0.224 µM (active) | 0.0438 µM (active) | 0.528 µM (active) | 0.049 µM (active) | 0.448 µM (active) | 1.17 µM (inactive) | 0.299 µM (active) | 2.05 µM (inactive) | 0.0834 µM (active) | 1.38 µM (inactive) | 1.93 µM (inactive) | 0.519 µM (active) | 0.104 µM (active) | 0.0484 µM (active)
